PubChem BioAssay AID624491 (Broad Institute, 2012)

Test system: D54 ERlucT glycosylation luciferase reporter, luminescence, 24 h
Experiment: N-linked glycosylation inhibitors, luciferase reporter, dose response, D54 ERlucT cells, luminescence, cherry-picks (AID 624491);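 also: signal gain reflects blocked N-linked glycosylation of a luciferase reporter; actives raise luciferase signal so AC26 marks activators of the reporter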

| SMILES | AC26 [nM] |
| --- | --- |
| Cc1ccc(-c2nc(NCCN(C)C)c3ccccc3n2)cc1 | 4940 |
| Cc1cccc(CCNC(=O)CCCOc2cc(=O)n(C)c3ccccc23)c1 | 4450 |
| COc1cc2c(cc1OC)CN(c1ccc(-c3ccccc3OC)nn1)CC2 | 3380 |
| COc1ccc(-c2cnc3c(NC=O)cc(-c4ccccc4)cn23)cc1OC | 97.1 |
| CCn1c2ccccc2c2cc(/C=N/NC(=O)c3ccc(O)cc3)ccc21 | 2160 |
| CN(C)CCc1cc2c(c3c1ccc1ccccc13)OCO2 | 5320 |
| Cn1c(=O)[nH]c(=O)c2c1nc(NN)n2CCOc1ccccc1 | 2570 |
| O=C1NC(=O)N(Cc2ccccc2)C(=O)/C1=C/C=C/c1ccco1 | 1080 |
| CCn1c2ccccc2c2cc(NC(=O)COC(=O)c3cc(S(N)(=O)=O)c(Cl)cc3Cl)ccc21 | 3710 |
| COc1cc(-c2nccc3cc4c(cc23)OCO4)cc(OC)c1OC | 1490 |
| COc1nc(=O)n(C2C=CC(=O)O2)cc1F (configuration not stated) | 3200 |
| COc1ccc(C(=O)NCC(c2ccco2)N2CCc3ccccc32)cc1 (configuration not stated) | 2300 |
| Cc1ccc(-n2nc(C)c(NC(=O)CCl)c2C)cc1C | 653 |
| COc1cccc(N2CCN(C(=O)c3[nH]c(C)c(C(C)=O)c3C)CC2)c1 | 1680 |
| Cc1cc2c(cc(C(=O)OCC(=O)NCc3ccco3)n2C)s1 | 198 |
| Cc1ccc(/C=N/NC(=O)c2cc(-c3cccnc3)nc3ccccc23)cc1 | 1250 |
| Cc1ccc(-c2nn3c(C)nnc3c3ccccc23)cc1S(=O)(=O)NC(C)(C)CO | 826 |
| CCN(CC)CCC(=O)Nc1cccc2c1C(=O)c1ccccc1C2=O | 965 |
| Cn1c(=O)cc2c3c(c(N4CCCCC4)ccc31)C(=O)c1ccccc1-2 | 4360 |
| O=C(Nc1ccccc1O)c1ccc(NC(=O)C2CC2)cc1 | 4330 |
| Cc1cc(C)c2nc3nc(C)c(C)cc3c(N)c2c1 | 998 |
| CCc1ccc(C2c3[nH]c4ccccc4c3CCN2C(=O)c2ccc(=O)n(C)n2)cc1 (configuration not stated) | 1330 |
| COc1ccc(/C=C/C(=O)c2ccc3c(c2)OCCO3)cc1[N+](=O)[O-] | 5050 |
| C[C@H]1CN([C@@H](C)CO)C(=O)Cc2cc(NC(=O)CCC(F)(F)F)ccc2O[C@H]1CN(C)S(=O)(=O)c1ccc(F)cc1 | 5300 |
| CC(C)n1cc(NC(=O)c2cc(-c3ccccc3)on2)cn1 | 1230 |
| Cc1cc(NC(=O)COC(=O)c2ccc(S(=O)(=O)N3CCCc4ccccc43)cc2)no1 | 665 |

| SMILES | AC26 [nM] |
| --- | --- |
| Cc1ccc(Nc2nnc(SCC(=O)Nc3ncc(S(=O)(=O)c4ccc([N+](=O)[O-])cc4)s3)s2)cc1 | 9030 |
| Cc1nnc2c(NCCC(C)C)nc3ccccc3n12 | 6080 |
| COC(=O)c1ccc(/C=C/C(=O)c2ccc(OC)c(OC)c2)cc1 | 4100 |
| COc1ccc(S(=O)(=O)NCc2ccccn2)cc1NC(=O)c1ccccc1C | 2690 |
| CCOc1ccc(N2CCc3c(C)nc(SC)nc32)cc1 | 2650 |
| Cc1cccc(NC(=O)c2cnn3ccccc23)c1C | 9570 |
| COc1ccc(/C=N/NC(=O)c2nc(-c3ccccc3)cc(-c3ccccc3)n2)cc1O | 685 |
| CC(=O)Nc1ccc(Nc2ccc3c4c(cc(=O)n3C)-c3ccccc3C(=O)c24)cc1 | 730 |
| C=C(C)Cc1c(C)c(C#N)c2nc3ccccc3n2c1NCCCN(C)C | 1080 |
| COc1ccc(C(=O)c2cc([N+](=O)[O-])ccc2N2CCN(C)CC2)cc1 | 2330 |
| COc1ccc(-c2nc3c(C(=O)NCCN(C)C)cccc3c3ccccc23)cc1 | 4160 |
| NC(=O)CC(NC(=O)c1ccc(Br)cc1)c1ccc(NC2CCCCC2)c([N+](=O)[O-])c1 (configuration not stated) | 6020 |
| COc1ccc(Nc2nc(-c3sc(C)nc3C)cs2)c(OC)c1 | 1240 |
| COc1cc(Nc2c3c(nc4ccccc24)CCCC3)cc(OC)c1OC | 581 |
| CN1C(=O)CSc2ccc(NC(=O)Nc3ccccn3)cc21 | 4260 |
| Cc1ccc(-c2nc(N(C)C3CCN(C)CC3)c3ccccc3n2)cc1 | 4000 |
| CN1/C(=C/C=C(/C#N)C(N)=O)C(C)(C)c2ccccc21 | 55.6 |
| Cc1nn(-c2ccccc2)c2c1CC(=O)Nc1ccccc1-2 | 329 |
| Cc1cc(C)c2c(c1)cc(C)c1nnc(SCC(=O)Nc3cc(C)on3)n12 | 12000 |
| O=C1c2ccccc2C(=O)N1Cc1cnc(N2CCN(c3ccccc3)CC2)s1 | 7870 |
| NNC(=O)c1nc(-c2ccccc2)cc(-c2ccccc2)n1 | 2320 |
| COc1ccc(C2=NOC(C(=O)NCc3ccc(F)cc3)C2)cc1 (configuration not stated) | 516 |
| COc1ccc(Nc2nc(N(C)c3ccccc3)nc(N)c2[N+](=O)[O-])cc1 | 271 |
| COc1ccc(OC)c(S(=O)(=O)Nc2ccc3c(c2)n(C)c(=O)n3C)c1 | 3320 |
| COc1ccc2c(c1)OC[C@H]1[C@H]2N2C(=O)c3ccc(F)cc3NC(=O)[C@@]2(C)[C@H]1c1ccccc1 | 1230 |
| Cc1cc(-c2nnc3n2N=C(c2ccc(-c4ccccc4)cc2)CS3)n[nH]1 | 2760 |

| SMILES | AC26 [nM] |
| --- | --- |
| COc1ccc2c(c1)OC[C@H]1[C@H]2N2C(=O)c3cc(OC)ccc3NC(=O)[C@@]2(C)[C@H]1c1ccccc1 | 1360 |
| COc1ccc2c(c1)[C@H]1[C@H](CO2)[C@H](c2ccccc2)[C@]2(C)C(=O)Nc3ccc(F)cc3C(=O)N12 | 568 |
| COc1ccc(NC(=O)c2nc(C)c(C3(C)CC(c4ccccc4)=NO3)s2)cc1 (configuration not stated) | 4020 |
| COc1cc(/C=N/NC(=O)c2ccc(CSc3nc4ccccc4[nH]3)cc2)cc(OC)c1OC | 3980 |
| O=C(CNC(=O)c1ccco1)N=Nc1c(O)n(CCc2ccccc2)c2ccccc12 | 1430 |
| Cc1cc(-n2c(SCC(=O)NCCC3=CCCCC3)nc3n[nH]c(C)c3c2=N)ccc1Cl | 4030 |
| COc1cccc(-c2cc3nc(-c4ccccc4)cc(=O)n3[nH]2)c1 | 7070 |
| Cc1[nH][nH]c(=O)c1C(c1ccc(-c2ccc(Cl)c(Cl)c2)o1)c1c(C)[nH][nH]c1=O | 917 |
| CCN(CC)CCn1c2ccccc2c2cnc(N)c(C#N)c21 | 750 |
| CC(=O)Nc1sc(C)c(C)c1C(=O)OCC(=O)N(CC(C)C)c1c(N)n(Cc2ccccc2)c(=O)[nH]c1=O | 4710 |
| CC[C@H](C)[C@H](NC(=O)c1ccc(Cl)cc1)C(=O)OCC(=O)c1ccc2c(c1)NC(=O)CO2 | 6470 |
| CC(C)Oc1ccc(F)cc1-c1cc(C(=O)Nc2ccc(C(C)(C)C)cc2)[nH]n1 | 2040 |
| COc1ccc(OC)c(Nc2nc(-c3c(C)nc4ncccn34)cs2)c1 | 2730 |
| CCN(CC)c1ccc(NC(=O)c2cc(OC)cc(OC)c2)c(C)c1 | 932 |
| CC(=O)NC(c1cccc(F)c1)c1nc(-c2ccccc2C)cs1 (configuration not stated) | 502 |
| O=C(CN1C(=O)NC(c2ccccc2)(c2ccccc2)C1=O)Nc1ccc(N2CCOCC2)cc1 | 4200 |
| Cc1cc(NCCN2CCOCC2)c2ccc3ccccc3c2n1 | 3590 |
| Cc1cc(C)c2c(N)c3ccccc3nc2n1 | 762 |
| CC#CCN1c2ccccc2[C@]23C[C@@H](C(=O)OC)N(C(=O)c4cc(C)oc4C)C2=NC(C(=O)OC)=C(C(=O)OC)[C@H]13 | 1790 |
| CC(C)(C)OC(=O)[C@H](Cc1ccccc1)NC(=O)c1nc[nH]c1C(=O)N1CCc2ccccc2C1 | 3820 |
| Cc1ccc(Nc2nc(-c3sc(C)nc3C)cs2)cc1 | 481 |
| CC(C)CC(NC(=O)c1ccc(Cl)cc1)C(=O)OCC(=O)c1ccc2c(c1)NC(=O)CO2 (configuration not stated) | 4090 |
| CCOC(=O)c1ccc(N=c2sc(C(=O)OC)cc(=O)n2Cc2ccco2)cc1 | 3830 |
| Cc1cccc2c(N)c3c(nc12)N(C)CC3 | 7370 |
| COc1cc2cnc(-c3ccccc3)cc2cc1OC | 2360 |
